Test results reported in patent US7803757B2, “Peptides based on the sequence of human lactoferrin and their use” (PharmaSurgics in Sweden AB, priority 1998, dated 2010).
Peptide text beside a SMILES is read from it. * marks the point of attachment. Acm = CC(=O)NC*

Key:
Assay type in all cases: cell-based
E. coli O6K5 [1] = test: bactericidal activity, incubation with E. coli O6K5 (Example 3, exp. II); settings: Exp. II: 100% killing, E. coli O6K5, 1/100 BHI, 2 hours
Experimental: (§1) Human lactoferrin (hLF), peptide 3, and peptide 4, respectively, were incubated with two different strains of E. coli, E. coli O14 (experiment I) and O6K5 (experiment II), in diluted growth medium ( 1/100 BHI—brain heart infusion) for 2 hours. The peptides were also incubated with E. coli O14 in 0.05 mM KCl (pH 7) without any growth medium (experiment III). Different concentrations of the peptides were tested.
(§2) After the incubation, samples were taken for bacterial plating. Serial dilutions of five- and fourfold steps were used in experiments I and II, respectively, and of twofold steps in experiment III.
(§3) The concentrations of the different peptides required for killing 100% (experiments I and II) or 90% (experiment III) of the bacteria are given in table 2.

C. neoformans = test: fungicidal activity MMC99%, C. neoformans (Example 27); settings: BHI diluted 1/100 (Table 23)
Experimental: In the examples, the minimal microbicidal concentrations (MMC) and minimal inhibitory concentrations (MIC) were determined as follows, unless otherwise specified in the examples. Bacterial or fungal strains were cultured in BHI medium over night at 37° C. A volume of the culture was transferred to a new tube with BHI and incubated for two more hours. Thereafter the cells were spun down and the pellet was suspended in BHI medium diluted 1/100 (1% BHI). The concentration of bacterial or fungal cells was spectrophotometrically determined at 650 nm. The microbial concentrations were also determined by viable counts. Peptides serially diluted in 1% BHI by twofold or tenfold steps were added in triplicate to the wells of a microtiterplate (200 μl per well). […] The microplate was incubated for another 20 hours at 37° C. and thereafter analysed spectrophotometrically at 650 nm in a microplate reader (Emax, Molecular Devices, USA). […] The MIC value was defined as the concentration giving no increase in the absorbance value above the background level after 20 hours of incubation.
In this example the fungicidal activity of three of the peptides according to the invention was studied, and tested against three different fungi. […] The concentration of each peptide needed to kill 99% of the fungi (MMC99%) was determined.

Candida krusei = test: fungicidal activity against Candida krusei strains (Example 4); settings: Exp. I
Experimental: In this example the fungicidal activity of the peptides according to the invention was tested and compared to the fungicidal activity of human lactoferrin. Different concentrations of hLF, peptide 3 and peptide 4 were incubated with different strains of Candida albicans and Candida krusei during 1-2 hours at 37° C. in 0.05 mM KCl at pH 7.0 at two different occasions—experiment I and II, respectively. After incubation samples were taken for plating on Saboroud plates.

C. albicans [2] = test: concentration for killing of 99% of C. albicans at different pH (Example 13, FIG. 2); settings: FIG. 2, different pH
Excerpt: In this example the concentrations needed of three peptides according to the invention for killing of 99% of C. albicans at different pH was compared to a reference peptide. The peptides according to the invention were peptide 2 (linear), peptide 3 (cyclic), peptide 4 (linear), peptide 5 (cyclic) and peptide 7 (lactam bridged), all capped. The reference peptides used were an uncapped cyclic form and an uncapped linear form of a Morinaga peptide, Morinaga 24 and 25. The results are illustrated in FIG. 2.

Candida albicans = test: fungicidal activity against Candida albicans, comparison with EP-A-0 629 347 peptides (Example 7); settings: C. albicans, I (tenfold steps), 5 · 10^3 yeast cells per ml
Experimental: In this example an in vitro test was performed to compare the bactericidal and fungicidal activity of the peptides according to the invention with peptides described in EP-A-0 629 347. The peptide according to the invention used was peptide 4, and the peptides according to EP-A-0 629 347 called Morinaga 10, Morinaga 11, Morinaga 12, and Morinaga 13.
The peptides were incubated with E. coli O14 and Candida albicans. Two concentrations of C. albicans yeast cells were tested, 5·10^6 and 5·10^3 per ml. Different concentrations of the peptides were tested.
After the incubation, samples were taken for bacterial plating. Serial dilutions of tenfold steps were used in the experiments marked with I in table 5 and of twofold steps in the experiments marked with II.

C. albicans [3] = test: microbicidal activity MMC99%, C. albicans (Example 28); settings: C. albicans (Table 24)
Procedure, shortened: (§4)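 Peptides serially diluted in 1% BHI were incubated with E. coli O6K5 or C. albicans (~1-5×10^5 cells/ml) for 2 h at 37 °C, then spotted on blood agar overnight. MMC99% was the peptide concentration causing 99% reduction of the inoculum.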

[4] = tested on: Candida albicans ATCC 64549; test: fungicidal and growth inhibitory activity, Candida albicans ATCC 64549 (Example 8)
Experimental: Candida albicans ATCC 64549 (1·10^5/ml) was incubated in the presence of the peptides during 2 hours at 37° C. in diluted growth medium (BHI, twofold serial dilutions starting with 50 μg/ml). The fungicidal activity was measured by culturing 5 μl from each incubation well on Saboroud agar plates.
The inhibition of growth was measured spectrophotometrically after 20 hours of incubation.

multiresistant S. aureus = test: bactericidal activity, multiresistant S. aureus (Example 18); settings: multiresistant S. aureus 5.0×10^5 per ml
Experimental: In this example the bactericidal activity of two of the peptides according to the invention was studied in a test with a multiresistant S. aureus. A bacterial solution with a concentration of 5.0×10^5 S. aureus bacterial per ml was used. The concentration of each peptide needed to kill 99% of the bacteria (MMC99%) was determined after 2 hours and after 24 hours of incubation at 37° C.

E. coli O6K5 [5] = test: microbicidal activity MMC99%, E. coli O6K5 (Example 28); settings: E. coli O6K5 (Table 24)
Procedure, shortened: as §4

E. coli O14 = test: bactericidal activity, incubation with E. coli O14 (Example 3, exp. I and III)
Experimental: as §1, §2, §3

C. albicans [6] = test: fungicidal activity MMC99%, C. albicans (Example 27); settings: BHI diluted 1/100 (Table 23)
Experimental: In the examples, the minimal microbicidal concentrations (MMC) and minimal inhibitory concentrations (MIC) were determined as follows, unless otherwise specified in the examples. Bacterial or fungal strains were cultured in BHI medium over night at 37° C. A volume of the culture was transferred to a new tube with BHI and incubated for two more hours. Thereafter the cells were spun down and the pellet was suspended in BHI medium diluted 1/100 (1% BHI). The concentration of bacterial or fungal cells was spectrophotometrically determined at 650 nm. The microbial concentrations were also determined by viable counts. Peptides serially diluted in 1% BHI by twofold or tenfold steps were added in triplicate to the wells of a microtiterplate (200 μl per well). The bacterial or fungal cell solutions were added in 10 μl volumes to give a final concentration of approximately 1-5×10^5 cells per ml in the well. The microplate was incubated at 37° C. in a humid chamber for two hours. Thereafter 5 μl was taken from each well and added as a drop onto a blood agar plate and incubated over night at 37° C. The microplate was incubated for another 20 hours at 37° C. and thereafter analysed spectrophotometrically at 650 nm in a microplate reader (Emax, Molecular Devices, USA). The concentration of peptide causing a 99% reduction of the inoculum after 2 hours of incubation was defined as the MMC99%. The MIC value was defined as the concentration giving no increase in the absorbance value above the background level after 20 hours of incubation.
In this example the fungicidal activity of three of the peptides according to the invention was studied, and tested against three different fungi. The fungi were incubated in BHI medium diluted 1/100. The concentration of each peptide needed to kill 99% of the fungi (MMC99%) was determined.

## CC[C@H](C)[C@H](NC(=O)[C@H](CSCNC(C)=O)NC(=O)[C@H](CO)NC(=O)[C@@H](NC(=O)[C@@H]1CCCN1C(=O)[C@@H]1CCCN1C(=O)CNC(=O)[C@H](CCCNC(=N)N)NC(=O)[C@@H](NC(=O)[C@H](CCCCN)NC(=O)[C@H](CCCNC(=N)N)NC(=O)[C@H](CCSC)NC(=O)[C@H](CC(N)=O)NC(=O)[C@H](CCCNC(=N)N)NC(=O)[C@H](CCC(N)=O)NC(=O)[C@H](Cc1c[nH]c2ccccc12)NC(=O)[C@H](CCC(N)=O)NC(=O)[C@H](Cc1ccccc1)NC(=O)[C@H](CSCNC(C)=O)NC(=O)[C@H](CCCCN)NC(=O)[C@@H](NC(C)=O)[C@@H](C)O)C(C)C)C(C)C)C(=O)N[C@@H](CCCCN)C(=O)N[C@@H](CCCNC(=N)N)C(N)=O [Peptide 4] (Ac-TKC(Acm)FQWQRNMRKVRGPPVSC(Acm)IKR-NH2)
E. coli O6K5 [1]
  Concentration of agent for 100%/90% killing: ≦7.8 μg/ml
C. neoformans
  MMC99%: ≦3.1
Candida krusei; C. krusei CCUG 969
  ratio hLF/pep. (concentration for 99% killing): 10
Candida krusei; C. krusei CCUG 969, 0.05 mM KCl pH 7.0
  Concentration of agent for 99% killing: 2.5 µg/mL
Candida krusei; C. krusei CCUG 35849
  ratio hLF/pep. (concentration for 99% killing): 10
Candida krusei; C. krusei CCUG 35849, 0.05 mM KCl pH 7.0
  Concentration of agent for 99% killing: 1.25 µg/mL
C. albicans [2]
  concentration needed for killing of 99% of C. albicans, compared with the capped cyclic peptides (in words): better effects than the capped cyclic peptides
Candida albicans
  Concentration of agent for 100% killing: 10 µg/mL
C. albicans [3]
  MMC99%: 5
[4]; C. albicans ATCC 64549 1·10^5/ml, 2 hours 37° C., diluted BHI
  Concentration of agent for 100% killing: 6.2 µg/mL
[4]; C. albicans ATCC 64549, spectrophotometrically after 20 hours
  Concentration of agent for inhibition of growth: 6.2 µg/mL
Multiresistant S. aureus; 2 hours at 37° C.
  MMC99%: 5.0 µg/mL
Multiresistant S. aureus; 24 hours at 37° C.
  MMC99%: ≦0.32 μg/ml
E. coli O6K5 [5]
  MMC99%: 20
E. coli O14; Exp. I: 100% killing, E. coli O14, 1/100 BHI, 2 hours
  Concentration of agent for 100%/90% killing: 4.4 µg/mL
E. coli O14; Exp. III: 90% killing, E. coli O14, 0.05 mM KCl (pH 7) without growth medium
  Concentration of agent for 100%/90% killing: 3.2 µg/mL
C. albicans [6]
  MMC99%: 6.3
